47 compounds from patent US20170037028A1 (BAYER PHARMA AKTIENGESELLSCHAFT, priority 2013, published 2017) can be followed below.

SMILES strings stand for the structures. pIC50: −log10 of the molar value.

For orientation: pIC50 means the negative decadic logarithm of the IC50, by convention in mol/L.

In the first assay the target is T1, GLUT1 (Homo sapiens, UniProt P11166).
T1 sequence (P11166 1-492): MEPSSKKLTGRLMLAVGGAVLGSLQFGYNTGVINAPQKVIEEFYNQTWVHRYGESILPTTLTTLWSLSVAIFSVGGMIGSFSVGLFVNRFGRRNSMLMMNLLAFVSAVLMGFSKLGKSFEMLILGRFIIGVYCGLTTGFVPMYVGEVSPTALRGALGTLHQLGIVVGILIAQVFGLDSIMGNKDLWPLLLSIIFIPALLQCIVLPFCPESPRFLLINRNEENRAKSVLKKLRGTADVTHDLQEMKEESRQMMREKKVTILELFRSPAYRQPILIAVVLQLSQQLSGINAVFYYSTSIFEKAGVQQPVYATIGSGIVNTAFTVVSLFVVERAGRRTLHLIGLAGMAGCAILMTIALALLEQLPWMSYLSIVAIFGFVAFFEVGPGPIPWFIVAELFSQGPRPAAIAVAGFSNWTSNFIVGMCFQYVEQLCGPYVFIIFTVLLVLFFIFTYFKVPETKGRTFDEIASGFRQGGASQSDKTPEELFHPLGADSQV
The experiment in a line: Indirect measurement of GLUT1 activity by quantification of intracellular ATP levels (glucose induced ATP increase). The class given is cell-based. Further details: endogenous in cells; host or cells: DLD1 or CHO-K1. The following applies: DLD1 cells; 0.1 mM glucose, 1 μM Rotenone, 15 min; CellTiter-Glo ATP readout; IC50 values standardized to cytochalasin B IC50 values; read-out: IC50 regarding glucose induced ATP increase (GLUT1 inhibition). Put shortly:
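Intracellular ATP was measured by CellTiter-Glo luminescence as an indirect readout of transport: glucose-driven for GLUT1, fructose-driven for GLUT2. DLD1 or CHO-K1 cells were used alongside an oxidative phosphorylation inhibitor. Beforehand, cells were held overnight in glucose-free 1% FCS medium to deplete ATP.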
(In general: ATP-based viability assays read luminescence as a measure of living cells.)
Turning to `COc1ccc2nc(C(N)=O)cc(C(=O)Nc3c(C(F)(F)F)nn(Cc4ccc(C#N)cc4)c3C)c2c1` [Example 245, N^4-[1-(4-cyanobenzyl)-5-methyl-3-(trifluoromethyl)-1H-pyrazol-4-yl]-6-methoxyquinoline-2,4-dicarboxamide], the pIC50 is 9.52.

Still in this assay, the particulars now being: read-out: IC50 regarding glucose induced ATP increase (GLUT1 inhibition).
`Cc1nn(Cc2cccc(C#N)c2)c(C)c1NC(=O)c1cc(C(N)=O)nc2ccccc12` [Example 1455]: the negative-log IC50 (pIC50) was 7.68.

Consider `Cc1nn(Cc2cccc(OC(F)(F)F)c2)c(C)c1NC(=O)c1cc(C(N)=O)nc2ccccc12` [Example 1585], for which the pIC50 was 7.34.

On to `Cc1nn(Cc2ccc(C(=O)NCCCC(C)(C)CO)cc2)c(C)c1NC(=O)c1cc(C(F)(F)F)nc2ccc(Br)cc12` [Example 1107], for which the pIC50 was 7.28.

Turning to `CC(C)c1nn(Cc2ccc(F)cc2)c(C(C)C)c1NC(=O)c1cc(C(F)(F)F)nc2cc(F)c(F)cc12` [Example 1357], the pIC50 is < 4.88.

As to `Cc1nn(Cc2ccc(C#N)cn2)c(C)c1NC(=O)c1cc(C(N)=O)nc2cc(F)c(F)cc12` [Example 354, N^4-{1-[(5-cyanopyridin-2-yl)methyl]-3,5-dimethyl-1H-pyrazol-4-yl}-6,7-difluoroquinoline-2,4-dicarboxamide], the pIC50 was 8.44.

For `Cc1c(NC(=O)c2cc(C(N)=O)nc3ccccc23)c(C(F)(F)F)nn1Cc1ccc(C(C)(C)C)cc1` [Example 1370], the pIC50 was 5.96.

Take `Cc1nn(Cc2ccc(C(=O)NCc3cccnc3)cn2)c(C)c1NC(=O)c1cc(C(F)(F)F)nc2ccc(Br)cc12` [Example 1170]: the pIC50 was 6.72.

Take `Cc1nn(Cc2ccccc2C(F)(F)F)c(C)c1NC(=O)c1cc(C(F)(F)F)nc2c(Cl)cc(Cl)cc12` [Example 1299]: the pIC50 is 4.95.

On to `Cc1c(NC(=O)c2cc(C(F)(F)F)nc3ccc(Br)cc23)c(C(F)(F)F)nn1C(C)c1ccccc1` (racemic) [Example 1398], for which the pIC50 was 7.41.

With `COc1cc(C(=O)Nc2c(C)nn(Cc3ccccc3C#N)c2C)c2ccccc2n1` [Example 80, N-[1-(2-cyanobenzyl)-3,5-dimethyl-1H-pyrazol-4-yl]-2-methoxyquinoline-4-carboxamide], the pIC50 is 6.64.

Take `CCc1noc(Cn2nc(C(F)(F)F)c(NC(=O)c3cc(C(N)=O)nc4cc(F)c(Cl)cc34)c2C)n1` [Example 1544]: the pIC50 is 7.80.

For the compound `COc1cccc(Cn2nc(C(F)(F)F)c(NC(=O)c3cc(C(N)=O)nc4ccc(Br)cc34)c2C)c1` [Example 1450], the pIC50 is 8.64.

For `Cc1nn(Cc2ccc(C(=O)N(C)CCN(C)C)cc2)c(C)c1NC(=O)c1cc(C(F)(F)F)nc2ccc(Br)cc12` [Example 1224], the pIC50 was 6.04.

`Cc1ccc2nc(C)cc(C(=O)Nc3c(C)nn(C/C=C/c4ccccc4)c3C)c2c1` [Example 1226]: the pIC50 was 6.03.

Take `Cc1c(NC(=O)c2cc(C(N)=O)nc3cccc(F)c23)c(C(F)(F)F)nn1Cc1ccc(F)c(F)c1` [Example 1443]: the pIC50 was 8.40.

With `Cc1ccc2nc(C)cc(C(=O)Nc3c(C(C)C)nn(Cc4ccc(F)cc4)c3C(C)C)c2c1` [Example 1356], the negative logarithm of the IC50 (pIC50) was < 4.88.

With `Cc1nn(Cc2cccc(S(C)(=O)=O)c2)c(C)c1NC(=O)c1cc(C(N)=O)nc2cc(F)c(Cl)cc12` [Example 1643], the pIC50 is 7.46.

For the compound `CC(=O)N1CCC(Cn2nc(C)c(NC(=O)c3cc(C(F)(F)F)nc4ccc(Br)cc34)c2C)CC1` [Example 1156], the pIC50 was 6.83.

`Cc1nn(Cc2ccc(S(C)(=O)=O)cc2)c(C)c1NC(=O)c1cc(C(F)(F)F)nc2ccc(Br)cc12` [Example 217, 6-bromo-N-{3,5-dimethyl-1-[4-(methylsulfonyl)benzyl]-1H-pyrazol-4-yl}-2-(trifluoromethyl)quinoline-4-carboxamide]: the pIC50 is 8.49.

`Cc1nn(Cc2ccc(C(=O)NCCCC(=O)N(C)C)cc2)c(C)c1NC(=O)c1cc(C(F)(F)F)nc2ccc(Br)cc12` [Example 1044]: the pIC50 was 8.06.

`COc1cc(C(=O)Nc2c(C(F)(F)F)nn(Cc3ccc(S(C)(=O)=O)cc3)c2C)c2ccccc2n1` [Example 1431]: the pIC50 is 6.86.

For `Cc1nn(Cc2ccc(F)cc2)c(C)c1NC(=O)c1cc(C(F)(F)F)nc2c(C(F)(F)F)cccc12` [Example 1307], the pIC50 was 4.85.

`Cc1c(NC(=O)c2cc(C(N)=O)nc3cc(F)c(Cl)cc23)c(C(F)(F)F)nn1Cc1ccc(C(F)(F)F)cc1` [Example 1589]: the pIC50 is 7.86.

As for `Cc1ccc2nc(C)cc(C(=O)Nc3c(C)nn(Cc4ccc(OC(F)(F)F)cc4)c3C)c2c1` [Example 58, N-{3,5-dimethyl-1-[4-(trifluoromethoxy)benzyl]-1H-pyrazol-4-yl}-2,6-dimethylquinoline-4-carboxamide], the pIC50 was 7.11.

Turning to `Cc1nn(Cc2ccc(F)c(F)c2)c(C)c1NC(=O)c1cc(C(F)(F)F)nc2cc(F)c(F)cc12` [Example 177, N-[1-(3,4-difluorobenzyl)-3,5-dimethyl-1H-pyrazol-4-yl]-6,7-difluoro-2-(trifluoromethyl)quinoline-4-carboxamide], the pIC50 is 7.13.

In the case of `Cc1nn(CC2CCN(S(=O)(=O)C3CC3)CC2)c(C)c1NC(=O)c1cc(C(N)=O)nc2ccccc12` [Example 1516], the pIC50 is 7.58.

On to `Cc1cccc(Cn2nc(C(F)(F)F)c(NC(=O)c3cc(C(N)=O)nc4cc(F)ccc34)c2C)c1` [Example 1480], for which the pIC50 was 7.98.

Consider `Cc1nn(Cc2ccc(F)cc2)c(C)c1NC(=O)c1cc(C2CC2)nc2ccc(Br)cc12` [Example 12, 6-bromo-2-cyclopropyl-N-[1-(4-fluorobenzyl)-3,5-dimethyl-1H-pyrazol-4-yl]quinoline-4-carboxamide], for which the negative-log IC50 (pIC50) was 8.11.

For `Cc1c(NC(=O)c2cc(C(N)=O)nc3ccccc23)c(C(F)(F)F)nn1Cc1c(F)cc(C#N)cc1F` [Example 396, N^4-[1-(4-cyano-2,6-difluorobenzyl)-5-methyl-3-(trifluoromethyl)-1H-pyrazol-4-yl]quinoline-2,4-dicarboxamide], the negative-log IC50 (pIC50) was 7.80.

Turning to `Cc1cc(Cn2nc(C)c(NC(=O)c3cc(C(N)=O)nc4cccc(F)c34)c2C)ccc1C#N` [Example 1697], the pIC50 was 9.30.

Consider `Cc1nn(Cc2ccc(F)cc2)c(C)c1NC(=O)c1cc(C2CC2)nc2c(Br)cccc12` [Example 16, 8-bromo-2-cyclopropyl-N-[1-(4-fluorobenzyl)-3,5-dimethyl-1H-pyrazol-4-yl]quinoline-4-carboxamide], for which the pIC50 was 7.92.

In the case of `Cc1nn(Cc2ccc(C(=O)NCCN3CCOCC3)cn2)c(C)c1NC(=O)c1cc(C(F)(F)F)nc2ccc(Br)cc12` [Example 1191], the pIC50 is 6.47.

As to `COc1cc(C(=O)Nc2c(C)nn(Cc3ncccc3C)c2C)c2ccccc2n1` [Example 1248], the pIC50 was 5.78.

On to `CCc1noc(Cn2nc(C(F)(F)F)c(NC(=O)c3cc(C(N)=O)nc4cc(F)ccc34)c2C)n1` [Example 1537], for which the pIC50 is 6.73.

`CNC(=O)c1nc(Cn2nc(C(F)(F)F)c(NC(=O)c3cc(C(N)=O)nc4ccccc34)c2C)no1` [Example 1557]: the pIC50 was 7.27.

As to `Cc1nn(Cc2ccc(C(=O)Nc3cccnc3)cc2)c(C)c1NC(=O)c1cc(C(F)(F)F)nc2ccc(Br)cc12` [Example 1045], the pIC50 was 8.03.

For the compound `Cc1c(NC(=O)c2cc(C(N)=O)nc3cc(F)ccc23)c(C(F)(F)F)nn1Cc1ccc(C#N)cc1O` [Example 1668], the pIC50 is 7.63.

Consider `Cc1nn(C(C)CCc2ccc(F)cc2)c(C)c1NC(=O)c1cc(C(N)=O)nc2cc(F)c(Cl)cc12` (racemic) [Example 1380], for which the pIC50 is 8.43.

Take `Cc1c(NC(=O)c2cc(C(N)=O)nc3cccc(F)c23)c(C(F)(F)F)nn1Cc1ccc(C(C)(C)C#N)cc1` [Example 1597]: the pIC50 was 7.05.

Regarding `Cc1nn(C(C)c2ccccc2)c(C)c1NC(=O)c1cc(C(N)=O)nc2ccccc12` (racemic) [Example 1362], the pIC50 is 8.24.

Regarding `Cc1ccccc1Cn1nc(C(F)(F)F)c(NC(=O)c2cc(C(N)=O)nc3cccc(F)c23)c1C` [Example 1496], the pIC50 is 8.21.

Take `Cc1cccc(CNC(=O)c2ccc(Cn3nc(C)c(NC(=O)c4cc(C(F)(F)F)nc5ccc(Br)cc45)c3C)cc2)c1` [Example 1190]: the pIC50 is 6.51.

As for `COc1cccc(Cn2nc(C)c(NC(=O)c3cc(C(F)(F)F)nc4c(Cl)cc(Cl)cc34)c2C)c1` [Example 67, 6,8-dichloro-N-[1-(3-methoxybenzyl)-3,5-dimethyl-1H-pyrazol-4-yl]-2-(trifluoromethyl)quinoline-4-carboxamide], the pIC50 is 6.84.

`Cc1nn(CC2CNC(=O)O2)c(C)c1NC(=O)c1cc(C(F)(F)F)nc2ccc(Br)cc12` (centres unmarked) [Example 1206]: the pIC50 is 6.35.

Consider `Cc1nn(Cc2ccc(C(=O)NCCCN3CCOCC3)cc2)c(C)c1NC(=O)c1cc(C(F)(F)F)nc2ccc(Br)cc12` [Example 1133], for which the pIC50 is 7.05.

Turning to `Cc1c(NC(=O)c2cc(C(N)=O)nc3cc(F)ccc23)c(C(F)(F)F)nn1Cc1ccc(F)cc1F` [Example 1435], the negative-log IC50 (pIC50) was 8.55.
